What is called IC50 is the concentration that inhibits the measured activity by half. Read a low IC50 as higher potency.

31 compounds from patent US11685732B2, “MYST family histone acetyltransferase inhibitors” (Epizyme, Inc., priority 2017, dated 2023) can be followed below.

Each structure is given as a SMILES string. Like-named read-outs stand apart in the source and are kept apart here.

The target in one test is KAT-7 (Homo sapiens (Human), UniProt O95251). The test is described as follows: KAT-7 biochemical inhibition assay (SAMDI mass spectrometry). On the procedure: (§1) KAT-7. Enzyme assay buffer was 50 mM Tris pH 8.0, 0.002% Tween20, 0.005% bovine skin gelatin, and 1 mM dithiothreitol (DTT). For determination of IC50 values, compounds were serially diluted with 2% (v/v) DMSO in the final reaction, pre-incubating each dilution of each compound with 40 μL of assay buffer containing KAT-7 enzyme (6 nM final concentration). 10 μL of assay buffer containing 1 μM peptide substrate and 2 μM acetyl coenzyme A (final concentrations) was added. Reactions (50 μL total) were then carried out at 25° C. for 120 minutes. Reactions were terminated by the addition of 0.5% formic acid (final concentration), and a sample of each reaction was analyzed by SAMDI Tech, Inc. (Chicago, Ill.) using self-assembled monolayer desorption/ionization time-of-flight mass spectrometry (Mrksich, M. (2008) Mass spectrometry of self-assembled monolayers: a new tool for molecular surface science. ACS Nano 2, 7-18).

In a further test the target is KAT-6A (Homo sapiens (Human), UniProt Q92794). Put plainly: KAT-6A biochemical inhibition assay (SAMDI mass spectrometry). On the procedure: as §1, with “KAT-6A. Enzyme” for “KAT-7. Enzyme”, “containing KAT-6A” for “containing KAT-7”, “enzyme (12.5” for “enzyme (6”, “and 1” for “and 2”, “for 90” for “for 120”
A further test has as its target KAT-8 (Homo sapiens (Human), UniProt Q9H7Z6). The test is described as follows: KAT-8 biochemical inhibition assay (SAMDI mass spectrometry). On the procedure:
as §1, with “KAT-8. Enzyme” for “KAT-7. Enzyme”, “containing KAT-8” for “containing KAT-7”, “enzyme (12.5” for “enzyme (6”, “and 5” for “and 2”, “for 90” for “for 120”

Another test has as its target KAT-5 (Homo sapiens (Human), UniProt Q92993). Put plainly: KAT-5 biochemical inhibition assay (SAMDI mass spectrometry). The procedure: as §1, with “KAT-5. Enzyme” for “KAT-7. Enzyme”, “containing KAT-5” for “containing KAT-7”, “enzyme (9” for “enzyme (6”, “and 0.5” for “and 2”, “for 90” for “for 120”

KAT-5, sequence (Q92993 other isoform, or with tags, fused parts or gaps): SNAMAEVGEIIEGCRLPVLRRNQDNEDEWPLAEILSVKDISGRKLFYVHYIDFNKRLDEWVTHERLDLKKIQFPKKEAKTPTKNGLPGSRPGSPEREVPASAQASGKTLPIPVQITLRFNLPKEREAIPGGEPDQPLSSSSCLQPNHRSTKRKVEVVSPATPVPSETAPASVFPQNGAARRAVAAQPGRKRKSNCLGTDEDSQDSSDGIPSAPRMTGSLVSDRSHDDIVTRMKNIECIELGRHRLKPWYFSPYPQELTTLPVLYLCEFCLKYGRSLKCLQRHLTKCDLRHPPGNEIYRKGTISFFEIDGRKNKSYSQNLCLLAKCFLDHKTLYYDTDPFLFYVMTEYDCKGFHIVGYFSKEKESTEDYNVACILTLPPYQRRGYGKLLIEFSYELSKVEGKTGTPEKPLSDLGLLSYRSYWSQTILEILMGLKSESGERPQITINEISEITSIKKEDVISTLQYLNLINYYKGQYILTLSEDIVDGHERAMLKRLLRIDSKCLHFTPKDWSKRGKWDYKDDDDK
KAT-6A, sequence (Q92794 other isoform, or with tags, fused parts or gaps): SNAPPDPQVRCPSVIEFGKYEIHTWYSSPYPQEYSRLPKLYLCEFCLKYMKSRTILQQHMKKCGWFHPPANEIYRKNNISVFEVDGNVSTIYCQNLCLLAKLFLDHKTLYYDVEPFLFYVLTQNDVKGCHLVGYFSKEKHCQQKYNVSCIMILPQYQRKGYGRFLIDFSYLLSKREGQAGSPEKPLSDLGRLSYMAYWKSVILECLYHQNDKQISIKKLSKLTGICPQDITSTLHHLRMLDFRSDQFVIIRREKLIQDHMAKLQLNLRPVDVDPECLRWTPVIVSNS
KAT-8, sequence (Q9H7Z6 other isoform, or with tags, fused parts or gaps): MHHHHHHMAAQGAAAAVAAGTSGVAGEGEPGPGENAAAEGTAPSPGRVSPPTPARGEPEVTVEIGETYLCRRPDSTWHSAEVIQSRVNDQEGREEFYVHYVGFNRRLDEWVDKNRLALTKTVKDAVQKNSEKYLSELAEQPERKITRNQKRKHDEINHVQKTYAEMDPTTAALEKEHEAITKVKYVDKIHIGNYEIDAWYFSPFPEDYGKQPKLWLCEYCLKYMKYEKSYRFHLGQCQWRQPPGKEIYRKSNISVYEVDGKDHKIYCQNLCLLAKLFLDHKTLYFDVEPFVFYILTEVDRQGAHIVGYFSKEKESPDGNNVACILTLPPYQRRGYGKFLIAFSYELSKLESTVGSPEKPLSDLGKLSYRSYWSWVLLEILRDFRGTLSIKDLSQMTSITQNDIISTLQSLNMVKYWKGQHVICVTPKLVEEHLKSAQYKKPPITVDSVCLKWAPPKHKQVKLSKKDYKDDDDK
KAT-7, sequence (O95251 other isoform, or with tags, fused parts or gaps): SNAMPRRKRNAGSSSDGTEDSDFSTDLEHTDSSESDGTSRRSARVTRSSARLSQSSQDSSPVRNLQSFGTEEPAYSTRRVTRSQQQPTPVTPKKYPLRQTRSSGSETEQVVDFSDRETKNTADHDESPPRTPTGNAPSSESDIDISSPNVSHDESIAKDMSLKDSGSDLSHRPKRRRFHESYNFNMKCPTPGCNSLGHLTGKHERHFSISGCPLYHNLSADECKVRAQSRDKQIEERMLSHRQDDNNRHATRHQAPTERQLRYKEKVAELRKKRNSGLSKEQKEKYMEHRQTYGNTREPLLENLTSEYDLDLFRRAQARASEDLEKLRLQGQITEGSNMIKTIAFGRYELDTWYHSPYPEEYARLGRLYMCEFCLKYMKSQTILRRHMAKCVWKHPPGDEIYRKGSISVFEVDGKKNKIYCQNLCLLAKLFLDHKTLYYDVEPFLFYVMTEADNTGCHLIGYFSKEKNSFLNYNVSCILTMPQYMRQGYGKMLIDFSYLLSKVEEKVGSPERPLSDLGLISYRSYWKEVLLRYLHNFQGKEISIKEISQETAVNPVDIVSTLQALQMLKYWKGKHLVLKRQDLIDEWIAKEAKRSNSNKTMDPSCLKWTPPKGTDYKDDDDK

Regarding `Cc1cc(-c2ccccc2)cc(C(=O)NNS(=O)(=O)CC2CCCN(C(=O)OC(C)(C)C)C2)c1F` (single isomer, unassigned) [B, reference compound], the IC50 on KAT-7 (Table 6, comparative compounds) was no more than 10 µM; on KAT-6A (Table 6, comparative compounds), no more than 10 µM; on KAT-8 (Table 6, comparative compounds) it was 50 to 100 µM; against KAT-5 (Table 6, comparative compounds) it was no more than 10 µM.
For `Cc1cc(-c2ccccc2)cc(C(=O)NNS(=O)(=O)CC2CCCN(C(=O)OC(C)(C)C)C2)c1F` (single isomer, unassigned) [C, reference compound], the IC50 on KAT-7 (Table 6, comparative compounds) was 10 to 50 µM; at KAT-6A (Table 6, comparative compounds) it was no more than 10 µM; against KAT-8 (Table 6, comparative compounds), greater than 100 µM; against KAT-5 (Table 6, comparative compounds), no more than 10 µM.
With `O=C(NNS(=O)(=O)CC1CCCNC1)c1cc(-c2ccccc2)cc(Cl)c1F` (stereo not shown) [A, reference compound], the IC50 on KAT-7 (Table 6, comparative compounds) is 50 to 100 µM; on KAT-6A (Table 6, comparative compounds), 10 to 50 µM; at KAT-8 (Table 6, comparative compounds), greater than 100 µM; against KAT-5 (Table 6, comparative compounds) it was 10 to 50 µM.
For `Cn1cnc(-c2cc(Cl)c(F)c(C(=O)NNS(=O)(=O)CC3CCOCC3)c2)c1` [Compound I-1], the IC50 against KAT-7 was less than 10 µM; against KAT-6A it was less than 10 µM; at KAT-8, greater than 100 µM; against KAT-5, less than 10 µM.
In the case of `Cn1cnc(-c2cc(Cl)c(F)c(C(=O)NNS(=O)(=O)C3CCCCC3)c2)c1` [Compound I-2], the 50% inhibitory concentration (IC50) was less than 10 µM against KAT-7, less than 10 µM at KAT-6A, 10 to 50 µM on KAT-8 and less than 10 µM at KAT-5.
Take `Cc1c(-c2cc(Cl)c(F)c(C(=O)NNS(=O)(=O)CC3CCCCC3)c2)ncn1C` [Compound I-38]: the IC50 at KAT-7 was less than 10 µM; on KAT-8, greater than 100 µM; at KAT-5 it was less than 10 µM.
Turning to `CC(C)S(=O)(=O)N1CCCC(CS(=O)(=O)NNC(=O)c2cc(-c3cn(C)cn3)cc(Cl)c2F)C1` (stereo not shown) [Compound I-98], the values for the IC50 on KAT-7, against KAT-8 and at KAT-5 were less than 10 µM, 10 to 50 µM and less than 10 µM, respectively.
As for `CC(=O)NC1CCCC(CS(=O)(=O)NNC(=O)c2cc(-c3cn(C)cn3)cc(Cl)c2F)C1` (stereo not shown) [Compound I-99], the half-maximal inhibitory concentration (IC50) against KAT-7 was less than 10 µM; on KAT-8, 10 to 50 µM; against KAT-5, less than 10 µM.
`CNC(=O)N[C@H]1C[C@@H](CS(=O)(=O)NNC(=O)c2cc(-c3cn(C)cn3)cc(Cl)c2F)C1` [Compound I-197]: the 50% inhibitory concentration (IC50) against KAT-8 was in the range of 10 to 50 µM.
For `Cn1cnc(-c2cc(Cl)c(F)c(C(=O)NNS(=O)(=O)C[C@H]3CC[C@H]4CC[C@@H]3N4C(=O)OC(C)(C)C)c2)c1` [Compound I-259], the 50% inhibitory concentration (IC50) is 10 to 50 µM on KAT-6A, 10 to 50 µM against KAT-8 and less than 10 µM against KAT-5.
For the compound `C[C@@H]1CNC[C@H]1CS(=O)(=O)NNC(=O)c1cc(-c2cn(C)cn2)cc(Cl)c1F` [Compound I-263], the 50% inhibitory concentration (IC50) against KAT-6A, at KAT-8 and against KAT-5 was 10 to 50 µM throughout.
As to `Cn1cnc(-c2cc(Cl)c(F)c(C(=O)NNS(=O)(=O)CC3CCCC(NC(=O)Cc4ccccn4)C3)c2)c1` (stereo not shown) [Compound I-268], the IC50 against KAT-6A is less than 10 µM; against KAT-8 it was 10 to 50 µM; against KAT-5, less than 10 µM.
`Cn1cnc(-c2cc(Cl)c(F)c(C(=O)NNS(=O)(=O)C[C@H]3CC[C@H](NC(=O)c4ccncc4)CC3)c2)c1` [Compound I-269]: the IC50 at KAT-6A was less than 10 µM; at KAT-8 it was 10 to 50 µM; at KAT-5 it was less than 10 µM.
As for `COC1CCCC(CS(=O)(=O)NNC(=O)c2cc(-c3cn(C)cn3)cc(Cl)c2F)C1` (stereo not shown) [Compound I-270], the half-maximal inhibitory concentration (IC50) on KAT-6A was less than 10 µM; against KAT-8 it was 10 to 50 µM; against KAT-5 it was less than 10 µM.
For `CCNC(=O)N1C[C@H](CS(=O)(=O)NNC(=O)c2cc(-c3cn(C)cn3)cc(Cl)c2F)[C@@H](C)C1` [Compound I-271], the concentration for half-maximal inhibition (IC50) against KAT-6A, against KAT-8 and on KAT-5 was 10 to 50 µM in each case.
In the case of `Cn1cnc(-c2cc(Cl)c(F)c(C(=O)NNS(=O)(=O)CC3CCOC3)c2)c1` (stereo not shown) [Compound I-272], the figures for the IC50 against KAT-6A, against KAT-8 and against KAT-5 were less than 10 µM, 10 to 50 µM and less than 10 µM, respectively.
Turning to `Cn1cnc(-c2cc(Cl)c(F)c(C(=O)NNS(=O)(=O)CC3CCCOC3)c2)c1` (stereo not shown) [Compound I-273], the IC50 against KAT-6A is less than 10 µM; at KAT-8, 10 to 50 µM; at KAT-5, less than 10 µM.
In the case of `CN(C(=O)OC(C)(C)C)C1CCCC(CS(=O)(=O)NNC(=O)c2cc(-c3cn(C)cn3)cc(Cl)c2F)C1` (stereo not shown) [Compound I-274], the IC50 against KAT-6A was less than 10 µM; against KAT-8, 10 to 50 µM; against KAT-5 it was less than 10 µM.
Consider `Cn1cnc(-c2cc(Cl)c(F)c(C(=O)NNS(=O)(=O)CC34CC5CC(CC(C5)C3)C4)c2)c1` [Compound I-275], for which the 50% inhibitory concentration (IC50) is less than 10 µM on KAT-6A, 10 to 50 µM on KAT-8 and less than 10 µM against KAT-5.
Consider `Cn1cnc(-c2cc(Cl)c(F)c(C(=O)NNS(=O)(=O)CC3CCCO3)c2)c1` (stereo not shown) [Compound I-276], for which the IC50 was less than 10 µM on KAT-6A, 10 to 50 µM at KAT-8 and less than 10 µM against KAT-5.
For `CC(=O)N1[C@H]2CC[C@@H](CS(=O)(=O)NNC(=O)c3cc(-c4cn(C)cn4)cc(Cl)c3F)[C@@H]1CC2` [Compound I-277], the IC50 against KAT-6A was less than 10 µM; at KAT-8, 10 to 50 µM; against KAT-5, less than 10 µM.
Turning to `COC1CCC(CS(=O)(=O)NNC(=O)c2cc(-c3cn(C)cn3)cc(Cl)c2F)CC1` (stereo not shown) [Compound I-278], the IC50 on KAT-6A was less than 10 µM; against KAT-8, 10 to 50 µM; against KAT-5, less than 10 µM.
As for `Cn1cnc(-c2cc(Cl)c(F)c(C(=O)NNS(=O)(=O)CC3CCCCO3)c2)c1` (stereo not shown) [Compound I-279], the figures for the concentration for half-maximal inhibition (IC50) at KAT-6A, against KAT-8 and on KAT-5 were less than 10 µM, 10 to 50 µM and less than 10 µM, respectively.
For `CN(C(=O)OC(C)(C)C)C1CC(CS(=O)(=O)NNC(=O)c2cc(-c3cn(C)cn3)cc(Cl)c2F)C1` (stereo not shown) [Compound I-390], the IC50 on KAT-6A is 10 to 50 µM; on KAT-8, greater than 100 µM; on KAT-5, less than 10 µM.
In the same order, the values of `Cn1cnc(-c2cc(Cl)c(F)c(C(=O)NNS(=O)(=O)c3cccc(O)n3)c2)c1` [Compound I-391] are less than 10 µM, 50 to 100 µM and less than 10 µM.
On the same counts, the results for `Cn1cnc(-c2cc(Cl)c(F)c(C(=O)NNS(=O)(=O)c3cccc(N)n3)c2)c1` [Compound I-392] are less than 10 µM, greater than 100 µM and less than 10 µM.
In the same order, the values of `Cn1cnc(-c2cc(Cl)c(F)c(C(=O)NNS(=O)(=O)c3cccc(NCc4ccccc4)n3)c2)c1` [Compound I-393] are less than 10 µM, greater than 100 µM and less than 10 µM.
For the compound `CN(CCOc1ccc(S(=O)(=O)NNC(=O)c2cc(-c3cn(C)cn3)cc(Cl)c2F)cc1)C(=O)OC(C)(C)C` [Compound I-394], the values for the IC50 on KAT-6A, at KAT-8 and against KAT-5 were 10 to 50 µM, greater than 100 µM and 10 to 50 µM, respectively.
For the compound `CNC1CC(CS(=O)(=O)NNC(=O)c2cc(-c3cn(C)cn3)cc(Cl)c2F)C1` (stereo not shown) [Compound I-395], the IC50 was 10 to 50 µM at KAT-6A, greater than 100 µM against KAT-8 and 10 to 50 µM at KAT-5.
On to `Cn1cnc(-c2cc(Cl)c(F)c(C(=O)NNS(=O)(=O)CC3CCC(C)(C)CC3)c2)c1` [Compound I-396], for which the values for the IC50 on KAT-6A, against KAT-8 and against KAT-5 were less than 10 µM, 10 to 50 µM and less than 10 µM, respectively.
Consider `COc1ccc(COc2cccc(S(=O)(=O)NNC(=O)c3cc(-c4cn(C)cn4)cc(Cl)c3F)c2)cc1` [Compound I-397], for which, on KAT-8, the IC50 was greater than 100 µM.
